Laboratory results as given in US20230372282A1, “METHOD FOR TREATEING OR […] OPTIC NEUROPATHY” (TZU CHI UNIVERSITY, priority 2022, published 2023).

Columns and labels:
[1] = tested on: CNPase; test: Immunohistochemistry of CNPase in the optic nerve (myelin integrity); format: in vivo, rat; conditions: rAION rats, BP 10 mg/kg i.p. 7 days; after AION induction 4.24±0.71, sham 11.06±2.60
Protocol: (§1) Adult male Wistar rats of 4 to 6 weeks of age (weighing 100-125 g) were used in the animal model of ischemic optic neuropathy and were divided into three groups: the sham group, the group administered with PBS following ischemic optic neuropathy injury, and the group with ischemic optic neuropathy injury accompanied by intraperitoneal injection of BP at 10 mg/kg for 7 consecutive days. The rats were housed in an animal room having a 12-hour light/dark cycle (the light cycle time is from 7 a.m. to 7 p.m.) with temperature controlled at 23° C. and humidity controlled at 55%, and supplied with filtered sterilized water and general rodent feed. During the experiment, general anesthesia of rats was performed by intramuscular injection of ketamine at 100 mg/kg and xylazine at 10 mg/kg. […]
(§2) First, vertical-sections of the ON were blocked with 2% bovine serum albumin (BSA) containing 0.3% triton X-100 for 1 hour. […] Fluorescence photographs of the sections of the ON tissue were taken at 10× magnification and 20× magnification using the Zeiss LSM 900 confocal system. The 20× magnified image of ED1^+ cells was analyzed using ImageJ software for quantification of exogenous macrophages. […]

[2] = tested on: RGC layer; test: TUNEL assay of apoptotic cells in the RGC layer; format: in vivo, rat; conditions: rAION rats, BP 10 mg/kg i.p. 7 days; PBS group 11.2±2.8, sham 2.8±1.9
Protocol: as §1, with “mg/kg. Local anesthesia was performed by using 0.5% Alcaine, and mydriasis was performed by administering Mydrin-P. To sacrifice the rats, carbon dioxide at a filling rate of 5 L/min was injected so that the volume of carbon dioxide was 20% of that of the cage, thereby achieving the main goal of reducing animal suffering.” for “mg/kg.”
Apoptotic cells in the ganglion cell layer (GCL) were detected using TUNEL assay according to the manufacturer's protocol. TUNEL-positive cells were calculated manually based on at least 6 retinal sections per eyeball in three groups (n=6 for each group). […]

[3] = tested on: rAION model; test: Flash visual evoked potential (FVEP), P1-N2 amplitude after AION induction; format: in vivo, rat; conditions: 28 days after AION induction, BP 10 mg/kg i.p. 7 days; PBS group 13.70±5.59, sham 33.63±8.30
Protocol: as §1
Twenty-eight days after AION induction, electrodes were implanted into the primary visual cortex (anteroposterior: −8 mm; dorsoventral: ±3 mm) and frontal cortex (anteroposterior: +1 mm), while a ground electrode was implanted in the tail. […] The general visual function was evaluated by P1-N2 amplitude. […]

[4] = tested on: NF-κB signaling pathway; test: Western blotting of retinal protein, NF-κB-related pathway; format: in vivo; conditions: rat retina, rAION, compared with AION+PBS group
Protocol: (§3) Adult male Wistar rats of 4 to 6 weeks of age (weighing 100-125 g) were used in the animal model of ischemic optic neuropathy and were divided into three groups: the sham group, the group administered with PBS following ischemic optic neuropathy injury, and the group with ischemic optic neuropathy injury accompanied by intraperitoneal injection of BP at 10 mg/kg for 7 consecutive days. The rats were housed in an animal room having a 12-hour light/dark cycle (the light cycle time is from 7 a.m. to 7 p.m.) with temperature controlled at 23° C. and humidity controlled at 55%, and supplied with filtered sterilized water and general rodent feed. During the experiment, general anesthesia of rats was performed by intramuscular injection of ketamine at 100 mg/kg and xylazine at 10 mg/kg. Local anesthesia was performed by using 0.5% Alcaine, and mydriasis was performed by administering Mydrin-P. To sacrifice the rats, carbon dioxide at a filling rate of 5 L/min was injected so that the volume of carbon dioxide was 20% of that of the cage, thereby achieving the main goal of reducing animal suffering.
(§4) Firstly, under local anesthesia, rats were administrated with Alcaine and Mydrin-P eye drops to induce mydriasis. Subsequently, the rats were intravenously injected with rose bengal (2.5 mM dissolved in PBS at pH 7.4) at 1 mL/kg, and immediately irradiated with 12 pulses (once per second) of argon green laser (wavelength: 532 nm, size: […], power: 80 mW) to excite various parts of the optic disc. In addition, the laser was focused on the optic disc by an ophthalmoscope. Then, Tobradex eye ointment was applied evenly to the rats' eyes. Finally, the physical health of the rats was taken care of daily until the end of the study.
The detailed process of Western blotting process was described in the inventors' previous articles Cell Death Dis. 2017, 8, e3172 and Nat. Med. 2015, 21, 677-687. The total protein of the rat retina was extracted with modified radio immunoprecipitation assay (RIPA) buffer, and the protein concentrations were analyzed using the bicinchoninic acid (BCA) protein assay kit. […] The protein signal on the membrane was detected using an enhanced chemiluminescence (ECL) kit. The signal strength of the bands was quantified using ImageJ software.
Previous studies have pointed out that the upregulation of reactive oxygen species (ROS) in ischemic injury induces inflammatory response through the IκBα-NF-κB signaling pathway. Here, protein expression of the NF-κB-related pathway was evaluated to investigate the molecular mechanisms involved in the protection of nerves by administration of BP. […]

[5] = tested on: retinal ganglion cells (RGCs); test: Retrograde labeling of RGCs with FluoroGold: RGC density and survival after AION induction; format: in vivo, rat
Protocol: as §3, §4
Retrograde labeling was performed three weeks after the rats were AION induced. […] One week after labeling, the rats were sacrificed and the eyeballs were carefully removed from the […] and fixed in 10% formalin for 2 hours. The entire retina was placed flat on a slide and paired with a filter set (excitation filter: 350-400 nm; radiation filter: 515 nm) and observed for morphology under a fluorescence microscope. The region with a radius of 1 mm from the center of the retina is defined as the central region, and the region with a radius of 3 mm from the center is defined as the mid-peripheral region. Ten blocks (38,250 μm^2; 225 μm×170 μm) were randomly selected from the central region and the mid-peripheral region to estimate the density of RGCs to determine the survival rate of RGCs.
To investigate the effect of BP on RGC survival rates after AION induction, retrograde labeling was carried out using Fluorogold (FG). […]

[6] = tested on: ED1+ macrophages; test: Immunohistochemistry of ED1+ macrophage infiltration in the optic nerve; format: in vivo, rat; conditions: rAION rats, BP 10 mg/kg i.p. 7 days; PBS group 166.4±19.3, sham 8.7±4.8
Protocol: as §1, §2

[7] = tested on: rAION model; test: Optical coherence tomography (OCT) imaging of optic nerve width and RNFL after AION induction; format: in vivo, rat; conditions: BP 10 mg/kg i.p.
Protocol: as §3, §4
On days 1, 3, 7, 14, and 28 after AION induction, the optic nerve width (ONW) and the coherence tomography image of the retinal nerve fiber layer (RNFL) were obtained using a Micron IV retinal microscope. The vertical resolution and horizontal resolution of the imaging system were set to be 1.8 μm and 3 μm, respectively, to provide a 3.2 mm field of view and 1.2 mm depth of field for the retina. The cornea was moistened with Methocel 2%. The Micron eyepiece was glued to be in direct contact with the eye. To allow vertical light penetration through the cornea, the retinal nerve fiber layer and the Bruch's membrane opening (ONW) were imaged with circular and linear scans, respectively, with an average of 50 frames per scan.
The optic nerve width (ONW) and retinal nerve fiber layer (RNFL) thickness were measured on days 1, 3, 7, 14, and 28 using optical coherence tomography (OCT) imaging in the sham group, PBS-treated group, and BP-treated group. As shown in FIG. 5A and FIG. 5B, after AION induction, optic disc swelling can clearly observed in the acute onset stage, and it was improved by administration of BP on days 3, 7 and 28 (311.95±23.21 μm vs. 469.58±29.35 μm, 259.35±33.73 μm vs. 329±25.73 μm, 273.71±23.22 μm vs. 300.73±26.41 μm, respectively). Compared with the PBS-treated group, BP was efficient in maintaining the area of the RNFL (0.089±0.0027 mm^2 vs. 0.08±0.0028 mm^2, 0.074±0.0089 mm^2 vs. 0.047±0.0042 mm^2 respectively) on days 14 and 28.

[8] = rodent model of NAION, BP 10 mg/kg i.p. 7 days

CCC/C=C1\OC(=O)c2ccccc21 [BP, n-butylidenephthalide]
expression of CNPase in the optic nerve (IHC signal) [1]: 7.20±1.22 | TUNEL-positive cells in the RGC layer per high powered field (HPF) [2]: 3.7±1.5 | FVEP P1 to N2 amplitude [3]: 22.01±7.03 μV | expression of IL-1β [4]: reduced expression | expression of NLRP3 [4]: reduced expression | phosphorylation of IκBα (phospho-IκBα expression level) [4]: significantly inhibited phosphorylation | phosphorylation of NF-κB (phospho-NF-κB expression level) [4]: significantly inhibited phosphorylation | density of RGCs in the central retina ([5]; rAION Wistar rats, BP 10 mg/kg intraperitoneal for 7 consecutive days, FluoroGold labeling 3 weeks after induction, sacrifice 1 week later, PBS group 935±514, sham 2771±453): 2172±458 RGCs per mm^2 | density of RGCs in the mid-peripheral retina ([5]; rAION Wistar rats, BP 10 mg/kg intraperitoneal for 7 consecutive days, PBS group 750±452, sham 2236±487): 1962±505 RGCs per mm^2 | improvement of RGC survival rate in the central retina [5, 8]: 44.7% | improvement of RGC survival rate in the mid-peripheral retina [5, 8]: 54.2% | ED1-positive cells in the optic nerve per high powered field [6]: 80.1±28.9 | optic nerve width (ONW) ([7]; day 3 after AION induction, vs. 469.58±29.35 PBS group): 311.95±23.21 μm | optic nerve width (ONW) ([7]; day 7 after AION induction, vs. 329±25.73 PBS group): 259.35±33.73 μm | area of the RNFL ([7]; day 14 after AION induction, vs. 0.08±0.0028 PBS group): 0.089±0.0027 mm^2 | area of the RNFL ([7]; day 28 after AION induction, vs. 0.047±0.0042 PBS group): 0.074±0.0089 mm^2 | optic nerve width (ONW) ([7]; day 28 after AION induction, vs. 300.73±26.41 PBS group): 273.71±23.22 μm
